Reference: ChEMBL document CHEMBL4602660, “Kinase-Inhibitory Nucleoside Derivatives from the Pacific Bryozoan Nelliella nelliiformis” (J Nat Prod, 2020)
One block for each compound: values may come before it. The source made the active and inactive calls. No cut-off for these calls is given here.

How the values were obtained:
[1] = molecular target: T1, Ribosomal protein S6 kinase alpha-3 (Homo sapiens, UniProt P51812); test: Inhibition of His-tagged recombinant human RSK2 expressed in baculovirus expression system after 1 hr by Z'-LYTE assay
[2] = molecular target: MAP kinase-activated protein kinase 2 (Homo sapiens) (UniProt P49137); test: Inhibition of His-tagged human MAPKAPK2 expressed in Escherichia coli at 10 uM after 1 hr by Z'-LYTE assay relative to control
[3] = molecular target: T2, Glycogen synthase kinase-3 alpha (Homo sapiens, UniProt P49840); test: Inhibition of N-Terminal GST tagged human GSK3A expressed in baculovirus expression system at 10 uM after 1 hr by Z'-LYTE assay relative to control
Target sequence in this assay (P49840 2-483 limits assumed): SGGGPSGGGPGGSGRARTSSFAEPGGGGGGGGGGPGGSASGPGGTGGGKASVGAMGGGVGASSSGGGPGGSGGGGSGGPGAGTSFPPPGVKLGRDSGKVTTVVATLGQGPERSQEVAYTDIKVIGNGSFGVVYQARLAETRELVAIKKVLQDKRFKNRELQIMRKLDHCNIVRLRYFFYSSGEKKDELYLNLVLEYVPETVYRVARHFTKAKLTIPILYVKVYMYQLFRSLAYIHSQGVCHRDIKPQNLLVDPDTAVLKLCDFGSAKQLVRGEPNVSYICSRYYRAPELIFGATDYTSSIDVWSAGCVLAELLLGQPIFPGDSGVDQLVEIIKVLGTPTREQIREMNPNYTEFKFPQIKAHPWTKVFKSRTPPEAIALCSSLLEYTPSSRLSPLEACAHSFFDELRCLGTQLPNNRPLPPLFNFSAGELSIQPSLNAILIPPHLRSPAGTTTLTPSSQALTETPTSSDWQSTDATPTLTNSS

[4] = molecular target: T1, Ribosomal protein S6 kinase alpha-3; test: Inhibition of His-tagged recombinant human RSK2 expressed in baculovirus expression system at 10 uM after 1 hr by Z'-LYTE assay relative to control
[5] = molecular target: Glycogen synthase kinase-3 beta (Homo sapiens) (UniProt P49841); test: Inhibition of N-Terminal His tagged human GSK3B expressed in baculovirus expression system at 10 uM after 1 hr by Z'-LYTE assay relative to control
Staphylococcus aureus = test: Antibacterial activity against Staphylococcus aureus up to 100 ug/ml; format: functional, organism-based
Saccharomyces cerevisiae = test: Antifungal activity against Saccharomyces cerevisiae; format: functional, organism-based
[6] = molecular target: T3, Mitogen-activated protein kinase 14 (Homo sapiens, UniProt Q16539); test: Inhibition of human MAPK14 expressed in Escherichia coli after 1 hr by Z'-LYTE assay
[7] = molecular target: T2, Glycogen synthase kinase-3 alpha; test: Inhibition of N-Terminal GST tagged human GSK3A expressed in baculovirus expression system after 1 hr by Z'-LYTE assay
Target sequence in this assay (P49840 whole entry): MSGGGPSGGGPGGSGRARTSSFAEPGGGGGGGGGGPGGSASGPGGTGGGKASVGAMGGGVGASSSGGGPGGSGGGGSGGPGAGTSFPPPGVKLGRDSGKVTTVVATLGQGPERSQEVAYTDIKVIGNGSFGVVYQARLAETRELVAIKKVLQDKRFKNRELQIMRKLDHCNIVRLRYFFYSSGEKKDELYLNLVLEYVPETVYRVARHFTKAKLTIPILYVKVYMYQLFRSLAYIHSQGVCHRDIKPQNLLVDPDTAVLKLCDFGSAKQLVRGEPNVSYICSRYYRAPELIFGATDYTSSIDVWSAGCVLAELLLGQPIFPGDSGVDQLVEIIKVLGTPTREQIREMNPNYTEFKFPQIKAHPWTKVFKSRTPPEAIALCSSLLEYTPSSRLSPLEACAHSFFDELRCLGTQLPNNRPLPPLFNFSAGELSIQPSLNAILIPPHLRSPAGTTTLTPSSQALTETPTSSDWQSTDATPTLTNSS

HL-60 = test: Cytotoxicity against human HL60 cells up to 10 uM; format: functional, cell-based
[8] = molecular target: T3, Mitogen-activated protein kinase 14; test: Inhibition of human MAPK14 expressed in Escherichia coli at 10 uM after 1 hr by Z'-LYTE assay relative to control
[9] = molecular target: Maternal embryonic leucine zipper kinase (Homo sapiens) (UniProt Q14680); test: Inhibition of GST tagged human MELK expressed in baculovirus expression system at 10 uM after 1 hr by Z'-LYTE assay relative to control
[10] = molecular target: MAP kinase-activated protein kinase 3 (Homo sapiens) (UniProt Q16644); test: Inhibition of His-tagged human MAPKAPK3 expressed in baculovirus expression system at 10 uM after 1 hr by Z'-LYTE assay relative to control
MAP kinase-activated protein kinase 3 (Homo sapiens), sequence (Q16644 whole entry, looked up): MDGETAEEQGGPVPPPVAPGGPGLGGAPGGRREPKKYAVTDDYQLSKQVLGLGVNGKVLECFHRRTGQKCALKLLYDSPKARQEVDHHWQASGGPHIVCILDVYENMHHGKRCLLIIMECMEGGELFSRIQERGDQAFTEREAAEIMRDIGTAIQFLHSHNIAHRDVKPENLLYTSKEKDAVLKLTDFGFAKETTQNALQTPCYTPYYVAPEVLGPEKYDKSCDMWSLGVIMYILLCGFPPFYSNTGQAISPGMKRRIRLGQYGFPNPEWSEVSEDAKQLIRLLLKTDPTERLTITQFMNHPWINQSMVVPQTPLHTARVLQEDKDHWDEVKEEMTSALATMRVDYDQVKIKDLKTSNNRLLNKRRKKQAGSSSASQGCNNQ

MAP kinase-activated protein kinase 2 (Homo sapiens), sequence (P49137 whole entry, looked up): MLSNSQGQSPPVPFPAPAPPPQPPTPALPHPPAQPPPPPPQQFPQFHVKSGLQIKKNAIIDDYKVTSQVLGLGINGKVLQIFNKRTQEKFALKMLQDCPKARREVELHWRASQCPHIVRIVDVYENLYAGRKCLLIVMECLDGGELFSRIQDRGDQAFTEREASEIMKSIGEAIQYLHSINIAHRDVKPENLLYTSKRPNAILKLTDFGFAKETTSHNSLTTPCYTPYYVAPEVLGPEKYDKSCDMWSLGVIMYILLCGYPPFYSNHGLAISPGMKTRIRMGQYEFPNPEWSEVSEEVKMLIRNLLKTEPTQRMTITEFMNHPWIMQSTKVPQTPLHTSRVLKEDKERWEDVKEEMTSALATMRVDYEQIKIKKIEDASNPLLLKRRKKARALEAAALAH
T3 sequence (Q16539 whole entry): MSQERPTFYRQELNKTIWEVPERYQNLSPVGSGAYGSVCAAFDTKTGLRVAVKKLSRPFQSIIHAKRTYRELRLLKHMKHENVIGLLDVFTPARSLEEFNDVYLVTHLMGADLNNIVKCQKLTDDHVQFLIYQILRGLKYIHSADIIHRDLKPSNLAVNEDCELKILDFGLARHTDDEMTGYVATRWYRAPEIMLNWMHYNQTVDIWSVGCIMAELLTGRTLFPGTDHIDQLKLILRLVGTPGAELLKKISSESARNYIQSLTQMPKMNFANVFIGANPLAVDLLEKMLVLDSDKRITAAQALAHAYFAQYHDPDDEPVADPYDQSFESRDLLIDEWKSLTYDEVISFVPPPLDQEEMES
Glycogen synthase kinase-3 beta (Homo sapiens), sequence (P49841 whole entry, looked up): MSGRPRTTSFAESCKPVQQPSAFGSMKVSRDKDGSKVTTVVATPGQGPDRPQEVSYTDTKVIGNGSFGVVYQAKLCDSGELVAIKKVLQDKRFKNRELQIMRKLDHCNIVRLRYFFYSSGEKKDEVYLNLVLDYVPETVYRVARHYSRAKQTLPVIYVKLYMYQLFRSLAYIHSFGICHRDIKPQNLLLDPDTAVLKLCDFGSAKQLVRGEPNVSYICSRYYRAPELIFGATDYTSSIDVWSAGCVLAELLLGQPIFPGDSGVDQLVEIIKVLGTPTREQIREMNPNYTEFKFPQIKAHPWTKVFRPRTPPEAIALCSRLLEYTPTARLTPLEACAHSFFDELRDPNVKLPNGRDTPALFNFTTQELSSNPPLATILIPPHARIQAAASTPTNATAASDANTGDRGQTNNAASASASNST
T1 sequence (P51812 whole entry): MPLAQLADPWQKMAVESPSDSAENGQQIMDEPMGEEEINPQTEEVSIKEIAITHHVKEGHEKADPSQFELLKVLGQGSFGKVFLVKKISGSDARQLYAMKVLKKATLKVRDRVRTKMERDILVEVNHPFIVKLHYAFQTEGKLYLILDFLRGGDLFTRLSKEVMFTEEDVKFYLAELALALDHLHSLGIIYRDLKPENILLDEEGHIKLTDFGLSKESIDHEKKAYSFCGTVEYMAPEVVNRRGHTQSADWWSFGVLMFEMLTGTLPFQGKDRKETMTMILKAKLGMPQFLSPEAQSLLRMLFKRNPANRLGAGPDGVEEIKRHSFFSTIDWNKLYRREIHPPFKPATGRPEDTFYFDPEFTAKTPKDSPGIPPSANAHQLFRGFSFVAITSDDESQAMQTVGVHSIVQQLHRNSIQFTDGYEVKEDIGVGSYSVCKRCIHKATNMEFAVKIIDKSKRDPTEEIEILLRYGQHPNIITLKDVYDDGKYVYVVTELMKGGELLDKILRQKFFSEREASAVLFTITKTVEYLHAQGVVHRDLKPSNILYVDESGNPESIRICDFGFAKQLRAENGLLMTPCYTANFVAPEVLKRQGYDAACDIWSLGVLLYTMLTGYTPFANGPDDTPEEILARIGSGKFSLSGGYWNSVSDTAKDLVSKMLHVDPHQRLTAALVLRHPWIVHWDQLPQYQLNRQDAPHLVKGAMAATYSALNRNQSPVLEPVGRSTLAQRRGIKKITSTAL
Maternal embryonic leucine zipper kinase (Homo sapiens), sequence (Q14680 whole entry, looked up): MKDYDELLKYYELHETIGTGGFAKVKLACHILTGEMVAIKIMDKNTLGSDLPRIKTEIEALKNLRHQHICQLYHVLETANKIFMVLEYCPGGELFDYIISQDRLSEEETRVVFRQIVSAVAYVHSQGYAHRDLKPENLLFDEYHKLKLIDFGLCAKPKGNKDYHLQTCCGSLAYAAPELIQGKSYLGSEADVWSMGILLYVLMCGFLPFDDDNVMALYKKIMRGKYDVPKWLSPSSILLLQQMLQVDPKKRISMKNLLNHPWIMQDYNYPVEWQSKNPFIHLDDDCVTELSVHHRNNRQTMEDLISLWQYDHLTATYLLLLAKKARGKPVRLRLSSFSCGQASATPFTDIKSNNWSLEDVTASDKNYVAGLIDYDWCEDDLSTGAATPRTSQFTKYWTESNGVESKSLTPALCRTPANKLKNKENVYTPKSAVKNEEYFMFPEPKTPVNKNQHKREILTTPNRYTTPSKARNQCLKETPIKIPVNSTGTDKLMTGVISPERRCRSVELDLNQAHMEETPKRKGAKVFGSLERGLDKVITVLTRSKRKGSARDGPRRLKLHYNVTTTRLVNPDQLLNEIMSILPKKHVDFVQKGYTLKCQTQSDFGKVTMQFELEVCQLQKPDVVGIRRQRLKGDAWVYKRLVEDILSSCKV

Compound: Nc1ncnc2c1ncn2[C@@H]1O[C@H](COC(=O)c2ccc[nH]2)[C@@H](O)[C@H]1O
IC50 [1]: 800 nM
inhibition [2]: 95%
inhibition [3]: 99%
inhibition [4]: 96%
inhibition [5]: 100%
Activity (Staphylococcus aureus): inactive
Activity (Saccharomyces cerevisiae): inactive
IC50 [6]: 1000 nM
IC50 [7]: 890 nM
Activity (HL-60): inactive
inhibition [8]: 95%
inhibition [9]: 95%
inhibition [10]: 98%

Compound: Nc1ncnc2c1ncn2[C@@H]1O[C@H](COC(=O)c2cc[nH]c2)[C@@H](O)[C@H]1O
IC50 [1]: 970 nM
inhibition [2]: 87%
inhibition [3]: 101%
inhibition [4]: 94%
inhibition [5]: 98%
Activity (Staphylococcus aureus): inactive
Activity (Saccharomyces cerevisiae): inactive
IC50 [6]: 1710 nM
IC50 [7]: 1000 nM
Activity (HL-60): inactive
inhibition [8]: 95%
inhibition [9]: 98%
inhibition [10]: 98%

Compound: Nc1nc2c(ncn2[C@@H]2O[C@H](COC(=O)c3cc[nH]c3)[C@@H](O)[C@H]2O)c(=O)[nH]1
IC50 [1]: 680 nM
inhibition [2]: 82%
inhibition [3]: 93%
inhibition [4]: 93%
inhibition [5]: 96%
Activity (Staphylococcus aureus): inactive
Activity (Saccharomyces cerevisiae): inactive
IC50 [6]: 990 nM
IC50 [7]: 670 nM
Activity (HL-60): inactive
inhibition [8]: 84%
inhibition [9]: 87%
inhibition [10]: 99%

Compound: Nc1nc2c(ncn2[C@@H]2O[C@H](COC(=O)c3ccc[nH]3)[C@@H](O)[C@H]2O)c(=O)[nH]1
IC50 [1]: 660 nM
inhibition [2]: 88%
inhibition [3]: 98%
inhibition [4]: 96%
inhibition [5]: 98%
Activity (Staphylococcus aureus): inactive
Activity (Saccharomyces cerevisiae): inactive
IC50 [6]: 950 nM
IC50 [7]: 710 nM
Activity (HL-60): inactive
inhibition [8]: 93%
inhibition [9]: 96%
inhibition [10]: 101%

The next compounds have a lower IC50 [1] than those just listed; values first:

IC50 [1]: 640 nM
inhibition [2]: 89%
inhibition [3]: 100%
inhibition [4]: 95%
inhibition [5]: 99%
IC50 [6]: 870 nM
IC50 [7]: 610 nM
inhibition [8]: 95%
inhibition [9]: 97%
inhibition [10]: 100%
Compound: O=C(OC[C@H]1O[C@@H](n2cnc3c(=O)[nH]cnc32)[C@H](O)[C@@H]1O)c1cc[nH]c1
Activity (Staphylococcus aureus): inactive
Activity (Saccharomyces cerevisiae): inactive
Activity (HL-60): inactive

IC50 [1]: 230 nM
inhibition [2]: 42%
inhibition [3]: 94%
inhibition [4]: 102%
inhibition [5]: 94%
IC50 [6]: 1320 nM
IC50 [7]: 1110 nM
inhibition [8]: 95%
inhibition [9]: 97%
inhibition [10]: 83%
Compound: O=C(OC[C@H]1O[C@@H](n2cnc3c(=O)[nH]cnc32)[C@H](O)[C@@H]1O)c1ccc[nH]1
Activity (Staphylococcus aureus): inactive
Activity (Saccharomyces cerevisiae): inactive
Activity (HL-60): inactive
